Measurements taken from PubChem BioAssay (NCI).
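Results reflect a 48-hour exposure of cells in 96-well plates to compound at five concentrations. GI50 is the concentration that inhibits growth by half. TGI: total growth inhibition.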

Key:
Test in all cases: NCI tumour cell line growth inhibition, 48 h
SF-539 CNS = test system: SF-539 CNS
UO-31 renal = test system: UO-31 renal
K-562 leukemia = test system: K-562 leukemia
COLO 205 colon = test system: COLO 205 colon
OVCAR-5 ovarian = test system: OVCAR-5 ovarian
CCRF-CEM leukemia = test system: CCRF-CEM leukemia
CAKI-1 renal = test system: CAKI-1 renal
MDA-MB-435 = test system: MDA-MB-435
KM12 colon = test system: KM12 colon
BT-549 breast = test system: BT-549 breast

| Compound | GI50 (SF-539 CNS) | TGI (SF-539 CNS) | GI50 (UO-31 renal) | TGI (UO-31 renal) | GI50 (K-562 leukemia) | TGI (K-562 leukemia) | GI50 (COLO 205 colon) | TGI (COLO 205 colon) | GI50 (OVCAR-5 ovarian) | TGI (OVCAR-5 ovarian) | GI50 (CCRF-CEM leukemia) | TGI (CCRF-CEM leukemia) | GI50 (CAKI-1 renal) | TGI (CAKI-1 renal) | GI50 (MDA-MB-435) | TGI (MDA-MB-435) | GI50 (KM12 colon) | TGI (KM12 colon) | GI50 (BT-549 breast) | TGI (BT-549 breast) |
| --- | --- | --- | --- | --- | --- | --- | --- | --- | --- | --- | --- | --- | --- | --- | --- | --- | --- | --- | --- | --- |
| CCCCCCCCCCCCNC(=O)N[C@H](C(=O)N[C@H]1/C=C/CCNC(=O)/C=C/[C@H](C)NC1=O)C(C)C | 0.0805 µM | 0.263 µM | 32.2 µM | > 100 µM | 0.456 µM | 15.1 µM | 0.0309 µM | 0.109 µM | 0.0271 µM | 0.114 µM | 0.0495 µM | 5.13 µM | 4.95 µM | > 100 µM | 0.0316 µM | 0.286 µM | 0.0222 µM | 0.0519 µM | 0.0228 µM | 0.0701 µM |
| COc1cc(N2CCN(C(C)C)CC2)ccc1Nc1nc(Nc2ccc(F)cc2C(=O)NCC(O)CO)c2cc[nH]c2n1 (centres undefined) | 5.13 µM | > 25 µM | > 25 µM | > 25 µM | > 19.9 µM | > 25 µM | 0.526 µM | > 9.9 µM | 4.28 µM | > 25 µM | 2.65 µM | > 25 µM | > 25 µM | > 25 µM | 4.99 µM | > 25 µM | 10.6 µM | > 25 µM | 8.23 µM | > 25 µM |
| Cc1ccc(S(=O)(=O)OCC(=O)Nc2ccc(C(=O)O)c(O)c2)cc1 | 24.7 µM | 72.2 µM | 45.1 µM | 173 µM | 28.9 µM | 120 µM | 113 µM | 259 µM | 46.5 µM | 105 µM | 13.7 µM | 69 µM | 14.7 µM | 91.1 µM | 39.9 µM | 169 µM | 73.6 µM | 199 µM | 71.6 µM | 206 µM |
| CC(=O)OC1CC2C(C)(C)CCC[C@]2(C)C2=C1C(O)=C(C(C)C)C(=O)C2=O (some centres undefined) | 0.723 µM | 3.83 µM | 0.638 µM | 2.06 µM | 0.919 µM | > 100 µM | 1.47 µM | 3.33 µM | 1.44 µM | 3.79 µM | 1.12 µM | 7.03 µM | 0.567 µM | 2.9 µM | 0.335 µM | 1.72 µM | 0.644 µM | 2.15 µM | 1.16 µM | 3.34 µM |
| COc1ccc(C2=NN(C=O)C(c3ccc(OS(=O)(=O)c4ccc(C)cc4)c(OC)c3)C2)cc1 (centres undefined) | 8.62 µM | > 100 µM | 3.39 µM | > 100 µM | 2.45 µM | > 100 µM | 8.44 µM | > 100 µM | > 100 µM | > 100 µM | 4.05 µM | > 100 µM | 5.35 µM | > 100 µM | 2.4 µM | 9.97 µM | 9.23 µM | > 100 µM | 3.35 µM | 58.1 µM |
| O=C(COc1cccc(/C=C2\COc3ccccc3C2=O)c1)c1ccccc1 | 15.6 µM | 29 µM | 1.77 µM | 3.26 µM | 2.05 µM | 5.65 µM | 2.93 µM | 10.3 µM | 2.8 µM | 7.23 µM | 1.98 µM | 7.62 µM | 3.32 µM | 12.7 µM | 3.14 µM | 10.7 µM | 1.92 µM | 3.65 µM | 5.3 µM | 22.2 µM |
| CN1C(=O)/C(=C2\S/C(=N\c3nnc(-c4ccccc4)o3)NC2=O)c2ccccc21 | > 100 µM | > 100 µM | > 100 µM | > 100 µM | > 100 µM | > 100 µM | > 100 µM | > 100 µM | > 100 µM | > 100 µM | 63.7 µM | > 100 µM | 51.8 µM | > 100 µM | > 100 µM | > 100 µM | > 100 µM | > 100 µM | > 100 µM | > 100 µM |
| CCC(CC)c1cc(N[C@H]2CC[C@H](N)C2)n2nccc2n1 | 1 µM | 5.07 µM | 2.08 µM | 5.69 µM | 0.642 µM | > 100 µM | 0.732 µM | 2.41 µM | 0.533 µM | > 100 µM | 1.08 µM | > 100 µM | 0.423 µM | > 100 µM | 1.38 µM | 3.76 µM | 1.7 µM | > 100 µM | 1.36 µM | 3.22 µM |
| NS(=O)(=O)c1ccc(N=Nc2c(O)[nH]c3ccc(C(=O)NCCc4cnc[nH]4)cc23)cc1 | > 25 µM | > 25 µM | > 25 µM | > 25 µM | > 25 µM | > 25 µM | > 25 µM | > 25 µM | > 25 µM | > 25 µM | > 25 µM | > 25 µM | > 25 µM | > 25 µM | > 25 µM | > 25 µM | > 25 µM | > 25 µM | > 25 µM | > 25 µM |
| O=C(Nc1ccn(C2CC(I)C(COC(c3ccccc3)(c3ccccc3)c3ccccc3)O2)c(=O)n1)c1ccccc1 (centres undefined) |  | 18.4 µM |  | 12.8 µM |  | 21.5 µM |  | 12.8 µM |  | > 21.5 µM |  | 17.3 µM |  | 21.5 µM |  | 15.7 µM |  | 24 µM |  | 67 µM |
| c1ccc(COCC[P+](c2ccccc2)(c2ccccc2)c2ccccc2)cc1 | 2.4 µM | 14.5 µM | 4.82 µM | 28.4 µM | 0.383 µM | 16 µM | 0.868 µM | 3.65 µM | 2.85 µM | > 100 µM | 1.36 µM | 14.1 µM | 5.4 µM | 23.1 µM | 0.601 µM | 6.28 µM | 0.501 µM | 11.1 µM | 0.953 µM | 15.5 µM |
| NC(=O)c1cc(I)ccc1NC(=O)/C=C/c1ccccc1Cl | 0.41 µM | 2.83 µM | 1.79 µM | 31.8 µM | 0.313 µM | 3.43 µM | 0.651 µM | 5.7 µM | 3.8 µM | 37.2 µM | 0.363 µM |  | 0.405 µM | 3.78 µM | 0.204 µM | 0.578 µM | 0.442 µM | 4.9 µM | 0.816 µM | 94.7 µM |
| CON=C1C[C@]2(C[C@@H]3C[C@@H](C/C=C(\C)C[C@@H](C)/C=C/C=C4\CO[C@@H]5[C@H](O)C(C)=C[C@@H](C(=O)O3)[C@]45O)O2)O[C@H](/C(C)=C/C(C)C)[C@H]1C | 20.4 µM | 36.9 µM | 11.2 µM | 23.3 µM | 3.69 µM | 10.8 µM | 13.7 µM | 28.5 µM | 18.1 µM | 37.4 µM | 7.65 µM | 34.3 µM | 7.52 µM | 21.6 µM | 7.98 µM | 21.5 µM | 8.1 µM | 21.9 µM | 18 µM | 33.4 µM |
